Reference: PMC3496387 (Molecular pharmaceutics, 2009)
Read-outs that look alike come from different tables or passages of the source.

Assays:
[1] = n=3
[2] = Stability in rat intestinal; type: in vitro ADME; details: rat intestinal perfusate, similar conditions, control compound
[3] = isotonic buffer pH 1.2, 37°C, * = estimated half lives
[4] = isotonic buffer pH 4.0, 37°C, * = estimated half lives
[5] = isotonic buffer pH 6.0, 37°C, * = estimated half lives

Row | Half lives, t1/2 [1, 3] | Half lives, t1/2 [1, 4] | Half lives, t1/2 [1, 5] | SMILES | Half lives, t1/2 ([1]; isotonic buffer pH 7.4, 37°C) | time to complete hydrolysis [2]
1 | 1732 min | 3465 ^* min | 385 ± 19 min | CC(OC(=O)c1ccccc1)OC(=O)[C@@H](N)Cc1ccccc1 (stereo partly drawn) [BA-Et-Phe, 1-((S)-2-amino-3-phenylpropanoyloxy) ethyl benzoate] | 24 ± 2 min | –
2 | 193 min | 385 min | 2.1 min | NC(Cc1ccccc1)C(=O)OCOC(=O)c1ccccc1 (stereo not drawn) [BA-Me-Phe, (2-amino-3-phenylpropanoyloxy) methyl benzoate] | – | –
3 | – | – | – | CC(C)C[C@H](NC(=O)[C@H](Cc1ccccc1)NC(=O)CNC(=O)CNC(=O)[C@@H](N)Cc1ccc(O)cc1)C(=O)O [leu-enkephalin] | – | ≤ 1 h

Row | SMILES | Half lives, t1/2 [1, 3] | Half lives, t1/2 [1, 4] | Half lives, t1/2 [1, 5] | Half lives, t1/2 ([1]; isotonic buffer pH 7.4, 37°C) | time to complete hydrolysis [2]
4 | CC(OC(=O)Cc1ccccc1)OC(=O)C(N)C(C)C (stereo not drawn) [PA-Et-Val, 1-(2-phenylacetoxy) ethyl 2-amino-3-methylbutanoate] | 11550 ^* min | 23100 ^* min | 1732.5 min | 50 ± 14.8 min | –
